Patent publication US20240218019A1, “METHODS AND COMPOSITIONS COMPRISING MHC CLASS I PEPTIDES” (BOARD OF REGENTS, THE UNIVERSITY OF TEXAS SYSTEM, priority 2021, published 2024)
“Also recorded” adds a separate entry of the source.

Tested on: healthy donor PBMCs
Assay: IFNγ ELISpot assay with peptide-stimulated healthy donor PBMCs
Assay type: cell-based, human
Conditions: for ELISPOT positive: only neoAgs marked Tested with ELISPOT
Method: FIG. 10A-D. In vitro validation of predicted neoAgs immunogenicity using ELISpot IFNy assay. A) Schematic of peptide pool, stimulation, and cell culture workflow for ELISpot assays. PBMCs were exposed with the individual peptides from the immunogenic pools in the presence of IL-7 for 3 d, followed by expansion of neoAg-specific T cells in the presence of IL-2. On day 13, expanded cells (10^5 cells per well) were plated onto 96-well ELISpot plate coated with an IFNγ antibody and re-stimulated with the respective peptide for 24 h. IFNy secreting cells were analyzed as spot-forming units (SFUs), and the inventors chose ≥15 SFU produced by peptide stimulated cells over DMSO control cells as an indicator of the peptide immunogenicity. B) Quantification of IFNγ-secreting cells (SFU) obtained from ELISpot assay of 12 neoAg-stimulated PBMCs. ConcA and DMSO served as positive and negative controls. […] C) Selection of 110 predicted MHC-I neoAgs from 3 different categories and percentage of immunogenicity in vitro validation. […] “Most Immunogenic” refers to neoAgs selected from the top 100 prediction list of Most Immunogenic MHC-I neoAgs. “Most recurrent” refers to neoAgs selected from the top 100 prediction list of Most Recurrent MHC-I neoAgs. “Others” refers neoAgs that were predicted to have low immunogenicity and no recurrency. A total of 44 MHC-II neoAgs from 2 different categories were tested. […] “Most Immunogenic” refers to neoAgs selected from the top 100 prediction list of Most Immunogenic MHC-II neoAgs. “Most recurrent” refers to neoAgs selected from the top 100 prediction list of Most Recurrent MHC-II neoAgs. D) pMHC-pentamer staining. Expanded Pan-T cells from the healthy human donor were isolated and stained with WDTC1 neoAg peptide/A*02:01 Pentameric complexes and PerCP-conjugated CD8 antibody followed by flow cytometry analysis. Pan T-cells from healthy human donor PBMC (HLA-A*02:01) were isolated using negative magnetic selection. Isolated Pan T cells were stimulated and expanded with Opto-antigen presenting beads conjugated with WDTC1 neoAg-peptide. Viable Pan-T cells were gated based on FSC and SSC scatter and SYTOX Blue dead cells staining after doublet-exclusion. Flow cytometric plots representing CD8 positive (x-axis) and PE-biotin-pMHC-pentamer positive (y-axis) cells; unstained, unstimulated, and WDTC1 Opto-antigen presenting beads stimulated cells (left to right). The percentage of live CD8+ cells and CD8/WDTC1 neoAg-loaded MHC pentamer positive cells are shown.
FIG. 19A-B. In vitro validation of the pooled predicted neoAgs immunogenicity using ELISpot IFNγ assay. A) Schematic of peptide pool, stimulation, and cell culture workflow for ELISpot assays. All 154 peptides were grouped into 15 peptide pools to stimulate PBMCs from 3 healthy human donors as shown in the illustrations. IFNy secreting cells were analyzed as spot-forming units (SFUs), indicative of immunogenicity. B) Quantification of IFNγ-secreting cells (SFU) obtained from ELISpot assay. Pools 2, 3, 5, 6, 9, and 12 produced at least 15 or higher SFU/10^5 cells from two different PBMCs. […] ConcA and DMSO served as positive and negative controls.
Healthy donor PBMCs were stimulated with 15 peptide pools (Supplementary Table 13) to expand the neoAg-specific CD8^+ T-cells followed by quantitative ELISpot assays (FIG. 19A) to measure immunogenicity. […] To ascertain the immunogenicity of individual peptides within each immunogenic pool. a deconvolution protocol (see Methods) was implemented (FIG. 10A). […] Three percent of MHC-I neoAgs not predicted to be highly immunogenic or recurrent (Others). 5% of the top 100 most immunogenic MHC-II predicted neoags, and 6% of the top 100 most recurrent MHC-II predicted neoags elicited an immunogenic response as assessed by ELISpot assays. Additionally. 18% of all of these elispot-reactive neoags were also predicted from the validation set (FIG. 9C). […]

[1] = IFNγ ELISpot, peptide-stimulated healthy donor PBMCs
[2] = IFNγ ELISpot, peptide-stimulated healthy donor PBMCs, peptides grouped in 15 pools
[3] = IFNγ ELISpot, only peptides marked Tested
[4] = IFNγ ELISpot, peptides marked Tested
[5] = IFNγ secretion in healthy donor PBMCs vs unexposed control cells

Substance: RPACTCISM [compound 97]
- ELISPOT result (positive Yes/No) for peptides marked Tested [1]: No
- ELISPOT positive: No

Substance: SLINLTWTA [compound 66]
- ELISPOT result for peptides marked Tested with ELISPOT (Yes/No) [1]: No

Substance: RVPAHASTSI
- Elispot reactive [2]: yes

Substance: CRREYRVTM [compound 135]
- ELISPOT result (positive Yes/No) for peptides marked Tested [1]: No

Substance: 233 (RHVIKVLLGRKVNWH) [compound 233]
- Elispot reactive [3]: No
- Elispot reactive [4]: No

Substance: FQVHFLKSGGLPLVL
- Elispot reactive [2]: yes

Substance: SQVWTAATLR [compound 115]
- Elispot reactive [4]: No

Substance: QKKLMLLRLNLRKMC
- Elispot reactive [2]: yes

Substance: LKLCSKVSF [compound 132]
- ELISPOT result (positive Yes/No) for peptides marked Tested [1]: No

Substance: FLATSGIDPV [compound 44]
- ELISPOT result for peptides marked Tested with ELISPOT (Yes/No) [1]: Yes
- Elispot reactive [4]: Yes
- Elispot reactive [5]: Yes

Substance: RPRMRAASPL [compound 13]
- Elispot reactive (IFNγ ELISpot, peptide tested): No

Substance: VPTWSARLL [compound 203]
- Elispot reactive (IFNγ ELISpot, peptide tested): No

Substance: 354 (PVTPLRVQSVLLLGV) [compound 354]
- ELISpot result (positive response) for peptides tested with ELISpot (IFNγ ELISpot, healthy donor PBMCs): No

Substance: YLGTPTWNC
- Elispot reactive [2]: yes

Substance: LLNPVTMNK [compound 204]
- Elispot reactive (IFNγ ELISpot, peptide tested): No

Substance: 224 (LINIHHRKNPLLPMR) [compound 224]
- Elispot reactive [3]: No

Substance: RTHPYSPKK [compound 171]
- ELISPOT result (positive Yes/No) for peptides marked Tested [1]: No

Substance: FLADSGIDPV [WDTC1, WDTC1 neoAg peptide, HLA-A*02:01 restricted]
- ELISpot IFNγ reactivity (immunogenicity) of individual peptides (healthy donor PBMCs, compared to unexposed control cells): most reactive (immunogenic); also recorded: immunogenic

Substance: SMAASPSPK [compound 179]
- ELISPOT result (positive Yes/No) for peptides marked Tested [1]: No

Substance: LSNVAPPAF [compound 168]
- ELISPOT result (positive Yes/No) for peptides marked Tested [1]: Yes
- Elispot reactive [5]: Yes

Substance: SPAIPPRPL
- Elispot reactive [2]: yes

Substance: 324 (FGILNVLEFSSDRKK) [compound 324]
- Elispot reactive [4]: No

Substance: 239 (LEVMLLNMGYRITGL) [compound 239]
- Elispot reactive [3]: No
- Elispot reactive [4]: No

Substance: 319 (PCASLLSTLSQPPPQ) [compound 319]
- Elispot reactive [4]: No

Substance: SQKNITPAI [compound 122]
- Elispot reactive [4]: No

Substance: RMASTSCAA [compound 161]
- ELISPOT result (positive Yes/No) for peptides marked Tested [1]: No

Substance: 335 (KKSVLKAIEQADLLQ) [compound 335]
- Elispot reactive [4]: No

Substance: 334 (ALGLRILPPPLTSPS) [compound 334]
- Elispot reactive [4]: No

Substance: IQKSWTATTY [compound 39]
- Elispot reactive [3]: Yes
- Elispot reactive [5]: Yes

Substance: FLWNSLLAV [compound 12]
- Elispot reactive (IFNγ ELISpot, peptide tested): No

Substance: RAWRAGMPL [compound 153]
- ELISPOT result (positive Yes/No) for peptides marked Tested [1]: No

Substance: YVAIRPLPY [compound 173]
- ELISPOT result (positive Yes/No) for peptides marked Tested [1]: No

Substance: 231 (YLRFIKSLAERTMSV) [compound 231]
- Elispot reactive [3]: No

Substance: KADQSESSL [compound 123]
- Elispot reactive [4]: No

Substance: RLSCAPPPI
- Elispot reactive [2]: yes

Substance: LSSWFSPTV [compound 139]
- ELISPOT result (positive Yes/No) for peptides marked Tested [1]: No

Substance: VMANVLTLNL [compound 157]
- ELISPOT result (positive Yes/No) for peptides marked Tested [1]: Yes
- Elispot reactive [5]: Yes

Substance: SLWSSMPHGV [compound 23]
- Elispot reactive [3]: Yes
- Elispot reactive [5]: Yes

Substance: RSAFPSRSL [compound 126]
- Elispot reactive [4]: No
- Elispot reactive (IFNγ ELISpot, only peptides marked Elispot tested = Yes): No

Substance: WSWCGTSQTY [compound 136]
- ELISPOT result (positive Yes/No) for peptides marked Tested [1]: Yes
- Elispot reactive [5]: Yes

Substance: 227 (EDIEFHFSLGWTMLV) [compound 227]
- Elispot reactive [3]: No

Substance: SWMGGLHSFY [compound 121]
- Elispot reactive [4]: No

Substance: RFCPASCSGCY
- Elispot reactive [2]: yes

Substance: 328 (LLHWRIGGGTPLSIS) [compound 328]
- Elispot reactive [4]: No

Substance: HPARHLCRL [compound 208]
- Elispot reactive (IFNγ ELISpot, peptide tested): No

Substance: KTYMEMHY
- Elispot reactive [2]: yes

Substance: AMAENILAA [compound 150]
- ELISPOT result (positive Yes/No) for peptides marked Tested [1]: No

Substance: SMMPPPPAL [compound 2]
- Elispot reactive (IFNγ ELISpot, peptide tested): No

Substance: RFCPASCSGCY [compound 170]
- ELISPOT result (positive Yes/No) for peptides marked Tested [1]: No

Substance: RRPLRSWTPR [compound 152]
- ELISPOT result (positive Yes/No) for peptides marked Tested [1]: No

Substance: 112 (FLALNQLPQV) [compound 112]
- ELISPOT positive: No

Substance: KLYEAVPQL [compound 159]
- ELISPOT result (positive Yes/No) for peptides marked Tested [1]: No

Substance: QTIEERLTW [compound 156]
- ELISPOT result (positive Yes/No) for peptides marked Tested [1]: Yes
- Elispot reactive [5]: Yes

Substance: IAQPSTSSL [compound 28]
- Elispot reactive [3]: No
- Elispot reactive [4]: No

Substance: LLNPVTMNKA
- Elispot reactive [2]: yes

Substance: RLYVPLYSSK
- Elispot reactive [2]: yes

Substance: 322 (PVLFKADQSESSLSS) [compound 322]
- Elispot reactive [4]: No

Substance: VLEDTLLKI [compound 158]
- ELISPOT result (positive Yes/No) for peptides marked Tested [1]: Yes
- Elispot reactive [5]: Yes

Substance: SQNWGSLPL [compound 164]
- ELISPOT result (positive Yes/No) for peptides marked Tested [1]: No

Substance: LSNVAPPAF
- Elispot reactive [2]: yes

Substance: APREGAAATPL [compound 18]
- Elispot reactive [3]: No

Substance: SPPLHLCQPL [compound 95]
- ELISPOT result (positive Yes/No) for peptides marked Tested [1]: No
- ELISPOT result for peptides marked Tested with ELISPOT (Yes/No) [1]: No

Substance: ELLNPVTMNK [compound 207]
- Elispot reactive (IFNγ ELISpot, peptide tested): No

Substance: FLIDDNFKV
- Elispot reactive [2]: yes

Substance: MPCFTTALLL [compound 155]
- ELISPOT result (positive Yes/No) for peptides marked Tested [1]: No

Substance: 250 (TVEMRRWWTLVMEWK) [compound 250]
- Elispot reactive [4]: No

Substance: HNVQGFHPY [compound 178]
- ELISPOT result (positive Yes/No) for peptides marked Tested [1]: No

Substance: RIPAVLRTEGEPLHT
- Elispot reactive [2]: yes

Substance: KANRYFSPNF [compound 62]
- ELISPOT result (positive Yes/No) for peptides marked Tested [1]: Yes
- ELISPOT result for peptides marked Tested with ELISPOT (Yes/No) [1]: No
- Elispot reactive [5]: Yes

Substance: MSSIWGTMF [compound 140]
- ELISPOT result (positive Yes/No) for peptides marked Tested [1]: No

Substance: AGIGWGASY [compound 160]
- ELISPOT result (positive Yes/No) for peptides marked Tested [1]: Yes
- Elispot reactive [5]: Yes

Substance: 311 (KSLVRLSSCVPVALM) [compound 311]
- Elispot reactive [4]: No
- ELISpot result (positive yes/no) (peptides marked Tested with ELISpot): No

Substance: KLFEKKYSV [compound 6]
- Elispot reactive (IFNγ ELISpot, peptide tested): No

Substance: VGMRETTGL [compound 119]
- Elispot reactive [4]: No

Substance: LSSPFREQM [compound 38]
- Elispot reactive [3]: No
- ELISPOT result (positive Yes/No) for peptides marked Tested [1]: No

Substance: 230 (SLDNVLRTMLRRFAR) [compound 230]
- Elispot reactive [3]: No

Substance: 329 (EIQLTMNDSKHKLES) [compound 329]
- Elispot reactive [4]: No

Substance: ILFFFSSK [compound 175]
- ELISPOT result (positive Yes/No) for peptides marked Tested [1]: No

Substance: YLFAKAYLV [compound 201]
- Elispot reactive (IFNγ ELISpot, peptide tested): No

Substance: VVHKKRGLF [compound 127]
- Elispot reactive [4]: No

Substance: LTFCTNATI [compound 200]
- Elispot reactive (IFNγ ELISpot, peptide tested): No

Substance: GLLHAVQEKL [compound 165]
- ELISPOT result (positive Yes/No) for peptides marked Tested [1]: No

Substance: 238 (TKFITYRSKKLIQES) [compound 238]
- Elispot reactive [3]: No

Substance: TQLARFFPI
- Elispot reactive [2]: yes

Substance: YMMDDLELI [compound 1]
- Elispot reactive [3]: No

Substance: GMVPLIIPV [compound 116]
- Elispot reactive [4]: No

Substance: ASLAHSDNF [compound 106]
- ELISPOT result (positive Yes/No) for peptides marked Tested [1]: No
- ELISPOT positive: No
